Experiments:
[1] = Cytotoxicity against human Huh-7D12 cells measured after 1 hr by SRB assay; type: functional, cell-based; conditions: Huh-7D12, 1 h
[2] = system: PLC-PRF-5; test: Cytotoxicity against human PLC-PRF-5 cells measured after 1 hr by SRB assay; type: functional, cell-based; conditions: PLC-PRF-5, 1 h
[3] = system: Hep 3B2; test: Cytotoxicity against human Hep3B cells measured after 1 hr by SRB assay; type: functional, cell-based
[4] = system: SK-HEP1; test: Cytotoxicity against human SK-HEP1 cells measured after 1 hr by SRB assay; type: functional, cell-based; conditions: SK-HEP1, 1 h
[5] = system: HepG2; test: Cytotoxicity against human HepG2 cells measured after 1 hr by SRB assay; type: functional, cell-based; conditions: HepG2, 1 h
[6] = system: H22; test: Antitumor activity against […] cells xenografted in mouse assessed as reduction in tumor volume at 15 mg/kg, ip measured after 21 days by caliper method relative to control; type: functional; parameters: scale not given: the % may be the effect or the level left; conditions: time 21 day
[7] = system: H22; test: Antitumor activity against […] cells xenografted in mouse assessed as reduction in tumor volume at 5 mg/kg, ip measured after 21 days by caliper method relative to control; type: functional; parameters: scale not given: the % may be the effect or the level left; conditions: time 21 day
[8] = system: Bel-7402; test: Antitumor activity against human Bel-7402 cells xenografted in mouse assessed as reduction in tumor volume at 14 mg/kg, ip administered daily for 21 days by caliper method relative to control; type: functional; parameters: scale not given: the % may be the effect or the level left; conditions: time 21 day
[9] = system: Bel-7402; test: Antitumor activity against human Bel-7402 cells xenografted in mouse assessed as reduction in tumor volume at 7 mg/kg, ip administered daily for 21 days by caliper method relative to control; type: functional; parameters: scale not given: the % may be the effect or the level left; conditions: time 21 day
[10] = system: SMMC-7721; test: Cytotoxicity against human SMMC-7721 cells incubated for 72 hrs by SRB assay; type: functional, cell-based; conditions: SMMC-7721, 72 h
[11] = system: Bel-7402; test: Cytotoxicity against human Bel-7402 cells incubated for 72 hrs by SRB assay; type: functional, cell-based; conditions: Bel-7402, 72 h
[12] = system: Bel-7402; test: Antitumor activity against human Bel-7402 cells xenografted in mouse assessed as reduction in tumor volume at 28 mg/kg, ip administered daily for 21 days by caliper method relative to control; type: functional; parameters: scale not given: the % may be the effect or the level left; conditions: time 21 day
[13] = system: H22; test: Antitumor activity against […] cells xenografted in mouse assessed as reduction in tumor volume at 45 mg/kg, ip measured after 21 days by caliper method relative to control; type: functional; parameters: scale not given: the % may be the effect or the level left; conditions: time 21 day
[14] = Half life in Kunming mouse at 15 to 30 mg/kg measured upto 240 mins; type: ADME, organism-based; conditions: in vivo, dose 15-30 mg/kg
[15] = Antitumor activity against human HCCLM3 cells xenografted in BALB/c nude mouse assessed as inhibition of tumor growth at 20 mg/kg measured for 14 days relative to control; type: functional; conditions: HCCLM3, 336 h, time 14 day
[16] = […] of cell cycle arrest in human HepG2 cells assessed as accumulation of cells at G2/M phase at 50 uM relative to control; type: functional; parameters: scale not given: the % may be the effect or the level left
[17] = […] of cell cycle arrest in human HCCLM3 cells assessed as accumulation of cells at S phase at 25 uM relative to control; type: functional; parameters: scale not given: the % may be the effect or the level left
[18] = […] of cell cycle arrest in human HepG2 cells assessed as accumulation of cells at S phase at 50 uM relative to control; type: functional; parameters: scale not given: the % may be the effect or the level left
[19] = […] of cell cycle arrest in human HCCLM3 cells assessed as accumulation of cells at G2/M phase at 25 uM relative to control; type: functional; parameters: scale not given: the % may be the effect or the level left
[20] = Antitumor activity against human HCCLM3 cells xenografted in BALB/c nude mouse assessed as reduction in Ki67 at 20 mg/kg measured for 14 days (reference value: 41.67+/-7.22% ); type: functional; parameters: scale not given: the % may be the effect or the level left; conditions: time 14 day
[21] = system: SMMC-7721; test: Induction of cell cycle arrest in human SMMC-7721 cells assessed as accumulation of cells at G0/G1 phase at 50 nM incubated for 24 hrs relative to control; type: functional
[22] = system: SMMC-7721; test: Induction of cell cycle arrest in human SMMC-7721 cells assessed as accumulation of cells at G0/G1 phase at 100 nM incubated for 24 hrs relative to control; type: functional
[23] = system: PLC-PRF-5; test: Induction of cell cycle arrest in human PLC-PRF-5 cells assessed as accumulation of cells at G0/G1 phase at 200 nM incubated for 24 hrs relative to control; type: functional
[24] = system: SMMC-7721; test: Induction of cell cycle arrest in human SMMC-7721 cells assessed as accumulation of cells at G0/G1 phase at 200 nM incubated for 24 hrs relative to control; type: functional
[25] = system: SMMC-7721; test: Antitumor activity against human SMMC-7721 cells xenografted in mouse assessed as reduction in tumor growth at 25 microg/kg administered daily for 40 days relative to control; type: functional; parameters: scale not given: the % may be the effect or the level left; conditions: dose 25 µg/kg; time 40 day
[26] = system: PLC-PRF-5; test: Induction of cell cycle arrest in human PLC-PRF-5 cells assessed as accumulation of cells at G0/G1 phase at 100 nM incubated for 24 hrs relative to control; type: functional
[27] = system: PLC-PRF-5; test: Induction of cell cycle arrest in human PLC-PRF-5 cells assessed as accumulation of cells at G0/G1 phase at 50 nM incubated for 24 hrs relative to control; type: functional
[28] = system: SMMC-7721; test: Antitumor activity against human SMMC-7721 cells xenografted in mouse assessed as reduction in tumor growth at 50 microg/kg administered daily for 40 days relative to control; type: functional; parameters: scale not given: the % may be the effect or the level left; conditions: dose 50 µg/kg; time 40 day
[29] = system: H22; test: Antitumor activity against […] cells xenografted in mouse assessed as reduction in tumor volume at 2 mg/kg, ip administered daily for 21 days by caliper method relative to control; type: functional; parameters: scale not given: the % may be the effect or the level left; conditions: time 21 day
[30] = system: Bel-7402; test: Antitumor activity against human Bel-7402 cells xenografted in mouse assessed as reduction in tumor volume at 2 mg/kg, ip administered daily for 21 days by caliper method relative to control; type: functional; parameters: scale not given: the % may be the effect or the level left; conditions: time 21 day
[31] = system: Bel-7402; test: Cytotoxicity against human Bel-7402 cells by SRB assay; type: functional, cell-based
[32] = Cytotoxicity against human HCC cells by SRB assay; type: functional, cell-based
[33] = Cytotoxicity against human Zip177 cells by SRB assay; type: functional, cell-based
[34] = system: SMMC-7721; test: Cytotoxicity against human SMMC-7721 cells assessed as reduction in cell viability by SRB assay; type: functional, cell-based
[35] = system: Hep 3B2; test: Cytotoxicity against human Hep3B cells by SRB assay; type: functional, cell-based
[36] = system: HepG2; test: Antiproliferative activity against human HepG2 cells assessed as reduction in cell viability at 50 ug/ml measured after 24 hrs relative to control; type: functional, cell-based; conditions: HepG2, 24 h

Q: With `C/C=C1/NC(=O)[C@H](Cc2ccccc2)NC(=O)[C@@H](C(C)C)NC(=O)[C@@H]([C@@H](C)CC)NC(=O)[C@H](NC(=O)[C@H](NC(=O)[C@H](CCCN)NC(=O)[C@H]2CCCN2C(=O)[C@H](NC(=O)[C@@H](NC(=O)[C@@H](NC(=O)[C@H](NC(=O)CCCC(C)C)C(C)C)[C@@H](C)O)C(C)C)C(C)C)[C@@H](C)CC)[C@@H](C)OC(=O)[C@H](C(C)C)NC1=O` as the compound, how does the IC50 [1] read?
A: 300 nM

Q: And the IC50 [2]?
A: 5300 nM

Q: And the IC50 [3]?
A: 350 nM

Q: What about the IC50 [4] of the same compound?
A: 2400 nM

Q: And the IC50 [5]?
A: 300 nM

Q: What does the source list for `Cc1cc(O)cc(O)c1OC1C(=O)Oc2c(C)cc(O)c3c2C1c1cc(O)cc(O)c1C3=O` (configuration not stated)?
A: Activity [6]: 62%; Activity [7]: 55%; Activity [8]: 51.2%; Activity [9]: 48.8%; IC50 [10]: < 4000 nM; IC50 [11]: < 6000 nM; Activity [12]: 59.9%; Activity [13]: 66%; half-life [14]: 0.667 h

Q: Which results are given for `COc1cc2ccnc3c2c(c1OC)NC=C3` [AAPTAMINE]?
A: inhibition in vivo at 20 mg/kg [15]: 40.3%; Activity [16]: 50%; Activity [17]: 50%; Activity [18]: 50%; Activity [19]: 50%; Activity [20]: 72.2%

Q: Which results are given for `CCC/C=C/C=C/C(=O)O[C@H]1/C(=C/C(=O)OC)C[C@H]2C[C@H]([C@@H](C)O)OC(=O)C[C@H](O)C[C@@H]3C[C@H](OC(C)=O)C(C)(C)[C@](O)(C[C@@H]4C/C(=C/C(=O)OC)C[C@H](/C=C/C(C)(C)[C@]1(O)O2)O4)O3` [BRYOSTATIN 1]?
A: Activity [21]: 37%; Activity [22]: 44%; Activity [23]: 54%; Activity [24]: 56%; Activity [25]: 32%; Activity [26]: 40%; Activity [27]: 34%; Activity [28]: 39%

Q: Which results are given for `COc1cccc2c1C(=O)c1c(O)c3c(c(O)c1C2=O)C[C@@](O)(C(=O)CO)C[C@@H]3O[C@H]1C[C@H](N)[C@H](O)[C@H](C)O1.Cl` [DOXORUBICIN HYDROCHLORIDE]?
A: Activity [29]: 51.9%; Activity [30]: 73.5%; half-life [14]: 23 h

Q: Which results are given for `COC(=O)[C@H](CCCC(C)C)[C@H]1CC[C@H]2[C@@H]3CC[C@H]4CC(=O)C=C[C@]4(C)[C@H]3CC[C@]12C` [METHYL SPONGOATE]?
A: IC50 [31]: 1700 nM; IC50 [32]: 4400 nM; IC50 [33]: 3000 nM; IC50 [34]: 2000 nM; IC50 [35]: 5000 nM

Q: With H-RIRDAIAHGYIVDKV-OH as the compound, how does the IC50 [36] read?
A: 28300 nM
